Measured values published in PubChem BioAssay AID2060485 (Molecular Pharmacology Branch, DTP, NCI, 2025).

System: A375 multi-cell spheroids with HUVEC/MSC, viability
Assay: Anticancer human tumor A375 cell line growth inhibition [GQUAD];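 also: spheroids exposed to compounds for seven days before readout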
Conditions: for IC50: curve of first compound; for viability, T/C: stronger effect = lower value
Summary of the method: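 Tumor cells were grown as complex spheroids with HUVEC endothelial cells and mesenchymal stem cells as stroma. G-quadruplex stabilizers were combined with targeted agents over half-log dilutions from near the clinical Cmax, or from 10 microM.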

[1] = second compound 0.0316 µM, first compound 0.0316 µM
[2] = second compound 0.0316 µM, first compound 0.1 µM
[3] = second compound 0.0316 µM, first compound 0.316 µM
[4] = second compound 0.0316 µM, first compound 1 µM
[5] = second compound 0.0316 µM, first compound 3.16 µM
[6] = second compound 0.0316 µM, first compound 10 µM
[7] = second compound 0.1 µM, first compound 0.0316 µM
[8] = second compound 0.1 µM, first compound 0.1 µM
[9] = second compound 0.1 µM, first compound 0.316 µM
[10] = second compound 0.1 µM, first compound 1 µM
[11] = second compound 0.1 µM, first compound 3.16 µM
[12] = second compound 0.1 µM, first compound 10 µM
[13] = second compound 0.316 µM, first compound 0.0316 µM
[14] = second compound 0.316 µM, first compound 0.1 µM
[15] = second compound 0.316 µM, first compound 0.316 µM
[16] = second compound 0.316 µM, first compound 1 µM
[17] = second compound 0.316 µM, first compound 3.16 µM
[18] = second compound 0.316 µM, first compound 10 µM
[19] = second compound 1 µM, first compound 0.0316 µM
[20] = second compound 1 µM, first compound 0.1 µM
[21] = second compound 1 µM, first compound 0.316 µM
[22] = second compound 1 µM, first compound 1 µM
[23] = second compound 1 µM, first compound 3.16 µM
[24] = second compound 1 µM, first compound 10 µM
[25] = second compound 3.16 µM, first compound 0.0316 µM
[26] = second compound 3.16 µM, first compound 0.1 µM
[27] = second compound 3.16 µM, first compound 0.316 µM
[28] = second compound 3.16 µM, first compound 1 µM
[29] = second compound 3.16 µM, first compound 3.16 µM
[30] = second compound 3.16 µM, first compound 10 µM
[31] = second compound 10 µM, first compound 0.0316 µM
[32] = second compound 10 µM, first compound 0.1 µM
[33] = second compound 10 µM, first compound 0.316 µM
[34] = second compound 10 µM, first compound 1 µM
[35] = second compound 10 µM, first compound 3.16 µM
[36] = second compound 10 µM, first compound 10 µM

COc1cc(C2c3cc4c(cc3C(OC3OC5COC(C)OC5C(O)C3O)C3COC(=O)C23)OCO4)cc(OC)c1O (stereo unspecified) + Cc1[nH]c2ccc(F)cc2c1-c1nc2c3cccnc3c3ncccc3c2[nH]1
IC50 (second compound 0.0316 µM): 1630 nM | IC50 (second compound 0.1 µM): 1010 nM | IC50 (second compound 0.316 µM): 1840 nM | IC50 (second compound 1 µM): 1810 nM | IC50 (second compound 3.16 µM): 1300 nM | IC50 (second compound 10 µM): 969 nM | viability, T/C [1]: 109% | viability, T/C [2]: 109% | viability, T/C [3]: 97.6% | viability, T/C [4]: 59.6% | viability, T/C [5]: 37.6% | viability, T/C [6]: 26.9% | viability, T/C [7]: 97.7% | viability, T/C [8]: 134% | viability, T/C [9]: 94.8% | viability, T/C [10]: 51.5% | viability, T/C [11]: 33.1% | viability, T/C [12]: 27.7% | viability, T/C [13]: 101% | viability, T/C [14]: 156% | viability, T/C [15]: 89.2% | viability, T/C [16]: 68.2% | viability, T/C [17]: 40.2% | viability, T/C [18]: 26% | viability, T/C [19]: 109% | viability, T/C [20]: 130% | viability, T/C [21]: 89.7% | viability, T/C [22]: 62.5% | viability, T/C [23]: 43.2% | viability, T/C [24]: 29% | viability, T/C [25]: 69% | viability, T/C [26]: 86.6% | viability, T/C [27]: 69.8% | viability, T/C [28]: 51.6% | viability, T/C [29]: 40.2% | viability, T/C [30]: 27.8% | viability, T/C [31]: 78.9% | viability, T/C [32]: 87.4% | viability, T/C [33]: 76.1% | viability, T/C [34]: 48.2% | viability, T/C [35]: 34.4% | viability, T/C [36]: 25.6%

COc1cccc2c1C(=O)c1c(O)c3c(c(O)c1C2=O)CC(O)(C(=O)CO)CC3OC1CC(N)C(O)C(C)O1 (stereo unspecified) + Cc1[nH]c2ccc(F)cc2c1-c1nc2c3cccnc3c3ncccc3c2[nH]1
IC50 (second compound 0.0316 µM): 271 nM | IC50 (second compound 0.1 µM): 216 nM | IC50 (second compound 0.316 µM): 286 nM | IC50 (second compound 1 µM): 251 nM | IC50 (second compound 3.16 µM): 288 nM | IC50 (second compound 10 µM): 326 nM | viability, T/C [1]: 101% | viability, T/C [2]: 90.8% | viability, T/C [3]: 38.9% | viability, T/C [4]: 20.5% | viability, T/C [5]: 2.15% | viability, T/C [6]: 0.1% | viability, T/C [7]: 103% | viability, T/C [8]: 74.5% | viability, T/C [9]: 35.2% | viability, T/C [10]: 19.8% | viability, T/C [11]: 2.23% | viability, T/C [12]: 0.08% | viability, T/C [13]: 110% | viability, T/C [14]: 89.2% | viability, T/C [15]: 41.3% | viability, T/C [16]: 22.7% | viability, T/C [17]: 3.01% | viability, T/C [18]: 0.09% | viability, T/C [19]: 99.3% | viability, T/C [20]: 82.8% | viability, T/C [21]: 38.7% | viability, T/C [22]: 18.7% | viability, T/C [23]: 3.16% | viability, T/C [24]: 0.1% | viability, T/C [25]: 68.2% | viability, T/C [26]: 60.1% | viability, T/C [27]: 49.4% | viability, T/C [28]: 21.3% | viability, T/C [29]: 0.45% | viability, T/C [30]: 0.13% | viability, T/C [31]: 71.9% | viability, T/C [32]: 72% | viability, T/C [33]: 48.9% | viability, T/C [34]: 20.9% | viability, T/C [35]: 1.35% | viability, T/C [36]: 0.22%

O=c1[nH]cc(F)c(=O)[nH]1 + Cc1[nH]c2ccc(F)cc2c1-c1nc2c3cccnc3c3ncccc3c2[nH]1
IC50 (second compound 0.0316 µM): > 10000 nM | IC50 (second compound 0.1 µM): > 10000 nM | IC50 (second compound 0.316 µM): > 10000 nM | IC50 (second compound 1 µM): > 10000 nM | IC50 (second compound 3.16 µM): > 10000 nM | IC50 (second compound 10 µM): > 10000 nM | viability, T/C [1]: 102% | viability, T/C [2]: 99% | viability, T/C [3]: 109% | viability, T/C [4]: 105% | viability, T/C [5]: 97.9% | viability, T/C [6]: 92.9% | viability, T/C [7]: 106% | viability, T/C [8]: 93.2% | viability, T/C [9]: 105% | viability, T/C [10]: 114% | viability, T/C [11]: 103% | viability, T/C [12]: 101% | viability, T/C [13]: 96% | viability, T/C [14]: 92.9% | viability, T/C [15]: 102% | viability, T/C [16]: 95.2% | viability, T/C [17]: 112% | viability, T/C [18]: 103% | viability, T/C [19]: 101% | viability, T/C [20]: 103% | viability, T/C [21]: 111% | viability, T/C [22]: 97.6% | viability, T/C [23]: 115% | viability, T/C [24]: 102% | viability, T/C [25]: 83.9% | viability, T/C [26]: 90.9% | viability, T/C [27]: 93.6% | viability, T/C [28]: 88.4% | viability, T/C [29]: 101% | viability, T/C [30]: 80.3% | viability, T/C [31]: 88.2% | viability, T/C [32]: 81.6% | viability, T/C [33]: 111% | viability, T/C [34]: 104% | viability, T/C [35]: 96.3% | viability, T/C [36]: 77.4%
